Here are results for 35 compounds from patent US6562843B1, “Substituted 3-pyridyl-4-arylpyrroles, and related therapeutic and prophylactic methods” (Ortho-McNeil Pharmaceutical, Inc., priority 1999, dated 2003).

One experiment deals with TNF-α production. As to the kind of experiment: In-Vitro Whole Cell Assay for TNF-α Inhibition (LPS-stimulated PBMC, ELISA). It is filed as cell-based. As to conditions: LPS overnight, TNF-α by ELISA. How it is done:
B. In-Vitro Whole Cell Assay for TNF-α Inhibition
Freshly obtained venous blood was anticoagulated with heparin, diluted with an equal volume of phosphate buffered saline (“PBS”) and placed in a sterile tube or other container. Aliquots (30 mL) of this mixture were transferred to centrifuge tubes which were underlaid with Ficoll-Hypaque (15 mL). The prepared tubes were centrifuged at 400×g, without braking, for 30 min at room temperature. Approximately ½ to ⅔ of the platelet layer above the mononuclear cell band was removed with a pipette. The majority of the mononuclear cell layer was carefully removed using a pipette and these PBMC's were diluted with PBS and spun at 600×g for 15 min. The resulting PBMC's were washed with another portion of PBS and spun at 400×g for 10 min at room temperature. The recovered pellets were diluted in low endotoxin RPMI/1% FCS culture medium, and gave a cell concentration of 0.5-2.0×10^6 PMBC/mL. A small volume of the suspension was removed for counting on a hemocytometer and the remaining preparation was centrifuged at 200×g for 15 min at room temperature. The recovered pelleted PMBC's were resuspended in RPMI/1% FCS to a concentration of 1.67×10^6/mL.
To run the assay, the PBMC suspension (180 μL) was transferred to duplicate wells of a 96-well flat-bottom microtiter plate and incubated for 1 h at 37° C. A solution of test compound (10 μL: prepared at 20× the desired final concentration) was added to each well and the plate was incubated for 1 h at 37° C. A solution (10 μL) of LPS in RPMI/1% FCS (200 ng/mL) was added and the wells were incubated overnight at 37° C. The supernate (100 μL) was removed from each well and diluted with RPMI/1% FCS (400 μL). The samples were analyzed for TNF-α using a commercial ELISA kit (Genzyme).
The compounds were tested for their ability to inhibit TNF-α production. The IC50 nM results are listed for the indicated compounds.

For experiment [1], the system named is LPS-induced TNF-α production. The experiment in a line: In Vivo Rodent Assay for Inhibition of TNF-α Production (mice). More on the design: species or system Mice (BALB/cJ females). The note with it: oral dosing, LPS 1 mg/kg i.p., serum TNF-α; for inhibition in vivo at 10 mg/kg / inhibition in vivo at 25 mg/kg: Mus musculus, 1 h; for inhibition in vivo at 25 mg/kg / TNF-α % Inhibition Mouse: 25 mg/kg. How it is done:
C. In Vivo Rodent Assay for Inhibition of TNF-α Production
Mice (BALB/cJ females, Jackson Laboratories) or rats (Lewis males, Charles River) were fasted for 30 min prior to oral dosing with 5-10 mL/kg of test compound at 5-50 mg/kg. Thirty minutes after dosing, the animals were injected intraperitoneally with LPS at 1 mg/kg and returned to their cages for 1 h. Animals were anesthetized by CO2, exsanguinated by cardiac puncture and whole blood collected (0.1-0.7 mL). The blood was allowed to clot and serum was transferred to a centrifuge tube. This sample was centrifuged, and serum was collected, aliquoted and frozen at −80° C. Samples were tested by commercial ELISA's for TNF-α (Endogen for mouse TNF-α and Biosource for rat TNF-α).

Where a name gives a salt, the structure may show the parent alone.

The IC50 is the concentration that gives 50% inhibition. Low values mean greater potency in that assay, high ones weaker potency in that assay. The term inhibition in vivo denotes the change of the read-out against control, counted positive when it falls.

In turn, `Cn1cc(-c2ccncc2)c(-c2ccc(F)c(C(F)(F)F)c2)c1` [compound 7] came in with an IC50 in the experiment on TNF-α production of 0.1 µM. For the same compound, in experiment [1], 10 mg/kg produced 61% inhibition in vivo and the inhibition in vivo at 25 mg/kg came to 79%.
For `CN(C)CCCn1cc(-c2ccc(F)cc2)c(-c2ccncc2)c1CCCc1ccccc1` [compound 44] the same measures were 0.008 µM, 100% and 100%.
Regarding `Cn1cc(-c2ccncc2)c(-c2ccsc2)c1` [compound 25], the IC50 with TNF-α production was 0.9 µM.
Consider `Fc1ccc(-c2c[nH]c(CCCN3CCOCC3)c2-c2ccncc2)cc1` [compound 47, 4-(4-Fluorophenyl)-2-(3-morpholinopropyl)-3-(4-pyridyl)pyrrole], for which, in the experiment on TNF-α production, the IC50 was found to be 0.177 µM. In experiment [1], this compound came in with an inhibition in vivo at 25 mg/kg of 77%.
Consider `Cn1cc(-c2ccncc2)c(-c2cccc(C(F)(F)F)c2)c1` [compound 9], for which the half-maximal inhibitory concentration (IC50) in the experiment on TNF-α production stood at 0.125 µM.
In turn, `COc1cccc(-c2cn(-c3ccc([N+](=O)[O-])cc3[N+](=O)[O-])cc2-c2ccncc2)c1` [compound 21] registered an IC50 with TNF-α production of 0.08 µM.
Same read-out and setting: for `COc1cccc(-c2cn(-c3ccc([N+](=O)[O-])cc3)cc2-c2ccncc2)c1` [compound 15] the value was 0.02 µM.
The compound `OCCCc1[nH]cc(-c2ccc(F)cc2)c1-c1ccncc1` [compound 46, 4-(4-Fluorophenyl)-2-(3-hydroxypropyl)-3-(4-pyridyl)pyrrole] gave an IC50 in the experiment on TNF-α production of 0.544 µM.
On the same count and under the same terms, next, `Cn1cc(-c2ccncc2)c(-c2cc(F)cc(C(F)(F)F)c2)c1` [compound 8]: 1.5 µM; `Cn1cc(-c2ccccc2)c(-c2ccncc2)c1` [compound 38]: 0.35 µM.
Regarding `COc1cccc(-c2cn(-c3ccc(N)cc3)cc2-c2ccncc2)c1` [compound 17], the IC50 in the experiment on TNF-α production was 0.095 µM. Also, in experiment [1], the “TNF-α % Inhibition Mouse” value is listed as 66%.
Take `Cn1cc(-c2ccncc2)c(-c2cccc(F)c2)c1` [compound 10]: half-maximal inhibition in the experiment on TNF-α production (IC50) required 0.125 µM.
For `COc1ccc(-c2cn(C)cc2-c2ccncc2)cc1` [compound 26], in the experiment on TNF-α production, the IC50 came out at 2 µM.
For `CN1CCCC1CCn1cc(-c2ccc(F)cc2)c(-c2ccncc2)c1CCCc1ccccc1` (stereo not drawn) [compound 41], in the experiment on TNF-α production, the IC50 was determined as 0.005 µM. In experiment [1], this compound registered an inhibition in vivo at 10 mg/kg of 100% and an inhibition in vivo at 25 mg/kg of 100%.
As to `CS(=O)(=O)c1ccc(-n2cc(-c3ccncc3)c(-c3ccc(F)c(F)c3)c2)cc1` [compound 5], the half-maximal inhibitory concentration (IC50) with TNF-α production amounted to 0.03 µM.
In the experiment with TNF-α production, `Cn1cc(-c2ccncc2)c(-c2cccc([N+](=O)[O-])c2)c1` [compound 11] returned an IC50 of 0.1 µM. Besides, in experiment [1], testing at 10 mg/kg gave an inhibition in vivo of 74% and the inhibition in vivo at 25 mg/kg stood at 94%.
In the experiment with TNF-α production, `Fc1ccc(-c2c[nH]cc2-c2ccncc2)cc1` [compound 27] returned a concentration for half-maximal inhibition (IC50) of 0.09 µM. Besides, in experiment [1], the inhibition in vivo at 10 mg/kg worked out at 73% and the inhibition in vivo at 25 mg/kg turned out to be 100%.
In the case of `Oc1cccc(-c2c[nH]cc2-c2ccncc2)c1` [compound 12, 3-(3-Hydroxyphenyl)-4-(4-pyridyl)pyrrole Hydrobromide], the IC50 in the experiment with TNF-α production came to 0.3 µM.
Take `Fc1ccc(-c2c[nH]cc2-c2ccncc2)cc1F` [compound 1]: the half-inhibitory concentration (IC50) in the experiment on TNF-α production turned out to be 0.02 µM. Further, in experiment [1], the “TNF-α % Inhibition Mouse” value is 96%.
In the experiment with TNF-α production, `CN1CCCC(Cn2cc(-c3ccc(F)cc3)c(-c3ccncc3)c2CCCc2ccccc2)C1` (stereo not drawn) [compound 42] came in with a concentration for half-maximal inhibition (IC50) of 0.002 µM. In experiment [1], this compound displayed an inhibition in vivo at 10 mg/kg of 100% and an inhibition in vivo at 25 mg/kg of 100%.
Turning to `Cn1cc(-c2ccncc2)c(-c2ccncc2)c1` [compound 34], the IC50 with TNF-α production was determined as 3 µM.
Take `COc1cccc(-c2cn(-c3ccc(S(C)(=O)=O)cc3)cc2-c2ccncc2)c1` [compound 19]: the IC50 in the experiment on TNF-α production was 0.03 µM. Moreover, the “TNF-α % Inhibition Mouse” value in experiment [1] is listed as −127%.
`COc1cccc(-c2cn(-c3ccc(NC(C)=O)cc3)cc2-c2ccncc2)c1` [compound 16] yielded an IC50 with TNF-α production of 0.075 µM. The “TNF-α % Inhibition Mouse” value in experiment [1] came to 50%.
On to `COc1cccc(-c2c[nH]cc2-c2ccncc2)c1` [compound 13, 3-(3-Methoxyphenyl)-4-(4-pyridyl)pyrrole], for which the IC50 in the experiment with TNF-α production is 0.055 µM.
Same read-out and setting: next, `Cn1cc(-c2ccncc2)c(-c2cc(F)cc(F)c2)c1` [compound 6]: 0.175 µM.
Take `Fc1ccc(-c2cn(CCN3CCCC3)c(CCCc3ccccc3)c2-c2ccncc2)cc1` [compound 45]: in the experiment on TNF-α production, the IC50 amounted to 0.003 µM. Moreover, in experiment [1], at 10 mg/kg the inhibition in vivo was 99% and the inhibition in vivo at 25 mg/kg is 99%.
The compound `COc1cccc(-c2c[nH]cc2-c2ccncn2)c1` [compound 24] displayed a half-maximal inhibitory concentration (IC50) with TNF-α production of 0.25 µM.
For `Fc1ccc(-c2cn(CCN3CCCCC3)c(CCCc3ccccc3)c2-c2ccncc2)cc1` [compound 40], the 50% inhibitory concentration (IC50) in the experiment on TNF-α production came to 0.003 µM. Also, in experiment [1], the inhibition in vivo at 10 mg/kg was found to be 96% and 25 mg/kg produced 96% inhibition in vivo.
`CSc1ccc(-c2cn(C)cc2-c2ccncc2)cc1` [compound 35] displayed a 50% inhibitory concentration (IC50) with TNF-α production of 0.25 µM.
Still for that read-out and setting: next, `COc1cccc(-c2cn(CCCc3ccccc3)cc2-c2ccncc2)c1` [compound 23]: 2 µM; `COc1cccc(-c2cn(-c3ccccn3)cc2-c2ccncc2)c1` [compound 20]: 0.15 µM; `CN(C)c1ccc(-c2cn(C)cc2-c2ccncc2)cc1` [compound 36]: 0.5 µM.
On the same count and under the same terms, next, `Cn1cc(-c2ccncc2)c(-c2ccc([S+](C)[O-])cc2)c1` (stereo not drawn) [compound 37]: 3 µM.
As for `Fc1ccc(-c2cn(CCN3CCOCC3)c(CCCc3ccccc3)c2-c2ccncc2)cc1` [compound 43], 0.001 µM corresponded to half-maximal inhibition in the experiment with TNF-α production (IC50). In experiment [1], testing at 10 mg/kg gave an inhibition in vivo of 93% and the inhibition in vivo at 25 mg/kg worked out at 93%.
In the experiment with TNF-α production, `Fc1ccc(-c2cn(CCCN3CCCCC3)c(CCCc3ccccc3)c2-c2ccncc2)cc1` [compound 39] displayed a half-maximal inhibitory concentration (IC50) of 0.005 µM. In experiment [1], this compound had an inhibition in vivo at 10 mg/kg of 36% and an inhibition in vivo at 25 mg/kg of 100%.
